Assay results taken from the supplement of paper PMC10307832.

Assays:
Experiment in all cases: relative viability (nuclei count vs DMSO), 5 days (fraction); higher = more cells survive
Shikonin + Decitabine = compound: CC(C)=CC[C@@H](O)C1=CC(=O)c2c(O)ccc(O)c2C1=O [Shikonin] + Nc1ncn([C@H]2C[C@H](O)[C@@H](CO)O2)c(=O)n1 [Decitabine] (partner 2 µM)
Method in brief: (§1)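 Medians of duplicate plates are given as relative viability. That measure is the nuclei count in treated wells divided by the count in vehicle wells. Counts were taken on 4× images of lung cancer cell lines in 1536-well plates, 5 days after pin-tool dosing the day after seeding with one drug alone or a fixed anchor-drug dose plus five library-drug doses (not always all listed) in √10 steps.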

[1] = compound: CC(C)N(CCCNC(=O)Nc1ccc(C(C)(C)C)cc1)C[C@H]1O[C@@H](n2ccc3c(N)ncnc32)[C@H](O)[C@@H]1O + Cc1cc(Nc2cc(N3CCN(C)CC3)nc(Sc3ccc(NC(=O)C4CC4)cc3)n2)n[nH]1 [Tozasertib] (partner 0.1 µM)
Method in brief: as §1

[2] = compound: CC(C)N(CCCNC(=O)Nc1ccc(C(C)(C)C)cc1)C[C@H]1O[C@@H](n2ccc3c(N)ncnc32)[C@H](O)[C@@H]1O + O=C(CCCCCCC(=O)Nc1ccccc1)NO [Vorinostat] (partner 1 µM)
Method in brief: as §1

Shikonin + Crizotinib = compound: CC(C)=CC[C@@H](O)C1=CC(=O)c2c(O)ccc(O)c2C1=O [Shikonin] + C[C@@H](Oc1cc(-c2cnn(C3CCNCC3)c2)cnc1N)c1c(Cl)ccc(F)c1Cl [Crizotinib] (partner 1 µM)
Method in brief: as §1

COR-L 105
relative viability (Shikonin + Decitabine; first compound 0.01 µM): 0.64 | relative viability (Shikonin + Decitabine; first compound 0.1 µM): 0.703 | relative viability (Shikonin + Decitabine; first compound 0.3162 µM): 0.625 | relative viability (Shikonin + Decitabine; first compound 1 µM): 0.477 | relative viability ([1]; first compound 0.08 µM): 0.357 | relative viability ([1]; first compound 0.253 µM): 0.357 | relative viability ([1]; first compound 0.8 µM): 0.331 | relative viability ([1]; first compound 2.53 µM): 0.336 | relative viability ([1]; first compound 8 µM): 0.316 | relative viability ([2]; first compound 0.08 µM): 0.893 | relative viability ([2]; first compound 0.253 µM): 1.41 | relative viability ([2]; first compound 0.8 µM): 0.879 | relative viability ([2]; first compound 2.53 µM): 0.89 | relative viability ([2]; first compound 8 µM): 0.818 | relative viability (Shikonin + Crizotinib; first compound 0.01 µM): 1.06 | relative viability (Shikonin + Crizotinib; first compound 0.1 µM): 0.721 | relative viability (Shikonin + Crizotinib; first compound 0.3162 µM): 0.763 | relative viability (Shikonin + Crizotinib; first compound 1 µM): 0.692

NCI-H1975
relative viability (Shikonin + Decitabine; first compound 0.01 µM): 0.377 | relative viability (Shikonin + Decitabine; first compound 0.1 µM): 0.392 | relative viability (Shikonin + Decitabine; first compound 0.3162 µM): 0.36 | relative viability (Shikonin + Decitabine; first compound 1 µM): 0.381 | relative viability ([1]; first compound 0.08 µM): 0.696 | relative viability ([1]; first compound 0.253 µM): 0.765 | relative viability ([1]; first compound 0.8 µM): 0.741 | relative viability ([1]; first compound 2.53 µM): 0.597 | relative viability ([1]; first compound 8 µM): 0.569 | relative viability ([2]; first compound 0.08 µM): 0.748 | relative viability ([2]; first compound 0.253 µM): 0.687 | relative viability ([2]; first compound 0.8 µM): 0.701 | relative viability ([2]; first compound 2.53 µM): 0.658 | relative viability ([2]; first compound 8 µM): 0.709 | relative viability (Shikonin + Crizotinib; first compound 0.01 µM): 1.07 | relative viability (Shikonin + Crizotinib; first compound 0.1 µM): 1.18 | relative viability (Shikonin + Crizotinib; first compound 0.3162 µM): 1.09 | relative viability (Shikonin + Crizotinib; first compound 1 µM): 0.959

NCI-H2009
relative viability (Shikonin + Decitabine; first compound 0.01 µM): 0.335 | relative viability (Shikonin + Decitabine; first compound 0.1 µM): 0.399 | relative viability (Shikonin + Decitabine; first compound 0.3162 µM): 0.399 | relative viability (Shikonin + Decitabine; first compound 1 µM): 0.222 | relative viability ([1]; first compound 0.08 µM): 0.765 | relative viability ([1]; first compound 0.253 µM): 0.727 | relative viability ([1]; first compound 0.8 µM): 0.798 | relative viability ([1]; first compound 2.53 µM): 0.695 | relative viability ([1]; first compound 8 µM): 0.713 | relative viability ([2]; first compound 0.08 µM): 0.728 | relative viability ([2]; first compound 0.253 µM): 0.73 | relative viability ([2]; first compound 0.8 µM): 0.703 | relative viability ([2]; first compound 2.53 µM): 0.744 | relative viability ([2]; first compound 8 µM): 0.675 | relative viability (Shikonin + Crizotinib; first compound 0.01 µM): 1.07 | relative viability (Shikonin + Crizotinib; first compound 0.1 µM): 1.2 | relative viability (Shikonin + Crizotinib; first compound 0.3162 µM): 0.972 | relative viability (Shikonin + Crizotinib; first compound 1 µM): 0.45

SW 1573
relative viability (Shikonin + Decitabine; first compound 0.01 µM): 0.446 | relative viability (Shikonin + Decitabine; first compound 0.1 µM): 0.686 | relative viability (Shikonin + Decitabine; first compound 0.3162 µM): 0.261 | relative viability (Shikonin + Decitabine; first compound 1 µM): 0.135 | relative viability ([1]; first compound 0.08 µM): 0.201 | relative viability ([1]; first compound 0.253 µM): 0.151 | relative viability ([1]; first compound 0.8 µM): 0.201 | relative viability ([1]; first compound 2.53 µM): 0.193 | relative viability ([1]; first compound 8 µM): 0.163 | relative viability ([2]; first compound 0.08 µM): 0.596 | relative viability ([2]; first compound 0.253 µM): 0.666 | relative viability ([2]; first compound 0.8 µM): 0.648 | relative viability ([2]; first compound 2.53 µM): 0.893 | relative viability ([2]; first compound 8 µM): 0.886 | relative viability (Shikonin + Crizotinib; first compound 0.01 µM): 0.906 | relative viability (Shikonin + Crizotinib; first compound 0.1 µM): 0.867 | relative viability (Shikonin + Crizotinib; first compound 0.3162 µM): 0.889 | relative viability (Shikonin + Crizotinib; first compound 1 µM): 0.741

NCI-H2347
relative viability (Shikonin + Decitabine; first compound 0.01 µM): 0.646 | relative viability (Shikonin + Decitabine; first compound 0.1 µM): 0.623 | relative viability (Shikonin + Decitabine; first compound 0.3162 µM): 0.659 | relative viability (Shikonin + Decitabine; first compound 1 µM): 0.597 | relative viability ([1]; first compound 0.08 µM): 0.51 | relative viability ([1]; first compound 0.253 µM): 0.492 | relative viability ([1]; first compound 0.8 µM): 0.48 | relative viability ([1]; first compound 2.53 µM): 0.539 | relative viability ([1]; first compound 8 µM): 0.654 | relative viability ([2]; first compound 0.08 µM): 0.54 | relative viability ([2]; first compound 0.253 µM): 0.537 | relative viability ([2]; first compound 0.8 µM): 0.458 | relative viability ([2]; first compound 2.53 µM): 0.608 | relative viability ([2]; first compound 8 µM): 0.546 | relative viability (Shikonin + Crizotinib; first compound 0.01 µM): 0.69 | relative viability (Shikonin + Crizotinib; first compound 0.1 µM): 0.0168 | relative viability (Shikonin + Crizotinib; first compound 0.3162 µM): 0.795 | relative viability (Shikonin + Crizotinib; first compound 1 µM): 0.715

HCC-366
relative viability (Shikonin + Decitabine; first compound 0.01 µM): 0.34 | relative viability (Shikonin + Decitabine; first compound 0.1 µM): 0.381 | relative viability (Shikonin + Decitabine; first compound 0.3162 µM): 0.37 | relative viability (Shikonin + Decitabine; first compound 1 µM): 0.367 | relative viability ([1]; first compound 0.08 µM): 0.0971 | relative viability ([1]; first compound 0.253 µM): 0.163 | relative viability ([1]; first compound 0.8 µM): 0.157 | relative viability ([1]; first compound 2.53 µM): 0.0768 | relative viability ([1]; first compound 8 µM): 0.103 | relative viability ([2]; first compound 0.08 µM): 0.439 | relative viability ([2]; first compound 0.253 µM): 0.303 | relative viability ([2]; first compound 0.8 µM): 0.182 | relative viability ([2]; first compound 2.53 µM): 0.357 | relative viability ([2]; first compound 8 µM): 0.291 | relative viability (Shikonin + Crizotinib; first compound 0.01 µM): 0.745 | relative viability (Shikonin + Crizotinib; first compound 0.1 µM): 0.373 | relative viability (Shikonin + Crizotinib; first compound 0.3162 µM): 0.517 | relative viability (Shikonin + Crizotinib; first compound 1 µM): 0.561

EMC-BAC-2
relative viability (Shikonin + Decitabine; first compound 0.01 µM): 0.964 | relative viability (Shikonin + Decitabine; first compound 0.1 µM): 1.07 | relative viability (Shikonin + Decitabine; first compound 0.3162 µM): 1.13 | relative viability (Shikonin + Decitabine; first compound 1 µM): 0.956 | relative viability ([1]; first compound 0.08 µM): 0.287 | relative viability ([1]; first compound 0.253 µM): 0.314 | relative viability ([1]; first compound 0.8 µM): 0.285 | relative viability ([1]; first compound 2.53 µM): 0.275 | relative viability ([1]; first compound 8 µM): 0.275 | relative viability ([2]; first compound 0.08 µM): 0.465 | relative viability ([2]; first compound 0.253 µM): 0.416 | relative viability ([2]; first compound 0.8 µM): 0.461 | relative viability ([2]; first compound 2.53 µM): 0.409 | relative viability ([2]; first compound 8 µM): 0.401 | relative viability (Shikonin + Crizotinib; first compound 0.01 µM): 0.771 | relative viability (Shikonin + Crizotinib; first compound 0.1 µM): 0.715 | relative viability (Shikonin + Crizotinib; first compound 0.3162 µM): 0.815 | relative viability (Shikonin + Crizotinib; first compound 1 µM): 0.866

NCI-H3122
relative viability (Shikonin + Decitabine; first compound 0.01 µM): 0.485 | relative viability (Shikonin + Decitabine; first compound 0.1 µM): 0.467 | relative viability (Shikonin + Decitabine; first compound 0.3162 µM): 0.443 | relative viability (Shikonin + Decitabine; first compound 1 µM): 0.458 | relative viability ([1]; first compound 0.08 µM): 0.477 | relative viability ([1]; first compound 0.253 µM): 0.489 | relative viability ([1]; first compound 0.8 µM): 0.382 | relative viability ([1]; first compound 2.53 µM): 0.383 | relative viability ([1]; first compound 8 µM): 0.353 | relative viability ([2]; first compound 0.08 µM): 0.957 | relative viability ([2]; first compound 0.253 µM): 1.2 | relative viability ([2]; first compound 0.8 µM): 0.894 | relative viability ([2]; first compound 2.53 µM): 0.991 | relative viability ([2]; first compound 8 µM): 0.921 | relative viability (Shikonin + Crizotinib; first compound 0.01 µM): 0.288 | relative viability (Shikonin + Crizotinib; first compound 0.1 µM): 0.271 | relative viability (Shikonin + Crizotinib; first compound 0.3162 µM): 0.278 | relative viability (Shikonin + Crizotinib; first compound 1 µM): 0.248
